What all share (format): cell-based
For one data set, the system named is RAW 264.7 cells. The data set can be described thus: Cell viability (SRB) of RAW 264.7 cells in the NO assay. The conditions noted are these: 50 µM.
A further data set relates to iNOS mRNA expression. The data set can be described thus: iNOS mRNA expression in LPS-treated RAW 264.7 cells (real time quantitative PCR). Particulars: 50 µM. The source says: Figure 2 Effect of phenazines on COX-2 (black) and iNOS (gray) mRNA expression in RAW 264.7 cells. Total RNA was isolated using the TRIZOL® Reagent method (Invitrogen) from RAW 264.7 cells (2 × 10^5 cells/well) after treatment with samples. cDNA was synthesized using the RT^2 First Strand Kit (C-03, SA Biosciences) protocol. cDNA was used for quantitative real time PCRs with fluorescent Power SyBR® Green PCR master mix (Applied Biosystems), employing GAPDH, iNOS, COX-2 specific primers, and a 7300 Real Time PCR System (Applied Biosystems). The results were derived from two independent RNA preparations employing identical triplicates in each analysis and quantitated using GAPDH as the internal control, following the manufacturer’s instructions. (A) GAPDH standard curve for quantitation of iNOS and COX-2 expression; (B) Levels of COX-2 (black) and iNOS (gray) mRNA expression. The concentration and duration of treatment had no significant effect on the viability of Raw 264.7 cells.
Total mRNA samples were isolated, and cDNA was amplified with specific primers, using GAPDH as housekeeping gene. LPS induced the expression of COX-2 and iNOS mRNA by approximately 11- and 24-fold, respectively. […]
RAW 264.7 cells (2 × 10^5 cells/well) were treated with test samples and total RNA was isolated with TRIZOL® Reagent (Invitrogen). […] The results were derived from two independent RNA preparations employing identical triplicates in each analysis and quantified using GAPDH as the internal control, following the manufacturer’s instructions. The fluorescence intensity (Rn) corresponding to the cycle of threshold value (Ct) is used to quantitate a given mRNA, employing the GAPDH standard curve (Figure 3A). The equation Y = −3.9408 X + 31.791 was used to quantify the relative mRNA content, where Y represents the number of cycles corresponding to the Ct (i.e., fluorescence intensity for a given mRNA species), and X represents the log copy number (C0) from which the relative content of mRNA was quantitated. […]

A further data set deals with NFκB. Nature of the data set: TNF-α-induced NFκB luciferase reporter assay in stably-transfected human embryonic kidney cells 293. Particulars: for IC50: human embryonic kidney cells 293 NFκB reporter, TNF-α 2 ng/mL, 6 h, read-out: IC50, inhibition of TNF-α-induced NFκB activity. How it is done: Activation of NFκB may promote cell proliferation or prevent cell death through apoptosis. Inhibition of NFκB signaling has potential application for the treatment or prevention of cancer; some inhibitors are known. […] […].
We employed human embryonic kidney cells 293 Panomic (Fremont, CA, USA) for monitoring changes occurring along the NFκB pathway. Stable constructed cells were seeded into sterile 96-well plate at 20 × 10^3 cells per well. Cells maintained in Dulbecco’s modified Eagle’s medium (DMEM) Invitrogen Co. (Carlsbad, CA, USA), supplemented with 10% FBS, 100 units/mL penicillin, 100 µg/mL streptomycin, 2 mM L-glutamine. After 48 h incubation, the medium was replaced and cells were treated with various concentration of test substances dissolved in PBS. TNF-α (Human, Recombinant, E. coli, Calbiochem, Gibbstown, NJ, USA) was used as an activator at a concentration of 2 ng/mL (0.14 nM). The plate was incubated for 6 h. Spent medium was discarded and the cells were washed once with PBS. Cells were lysed using 50 µL (for 96-well plate) Reporter Lysis Buffer from Promega, by incubating for 5 min on a shaker, and stored at −80 °C. The luciferase assay was performed using the Luc assay system from Promega (Madison, WI, USA). The gene product, luciferase enzyme, reacts with luciferase substrate, emitting light which was detected using a luminometer (LUMIstar Galaxy BMG). Data for NFκB constructs are expressed as IC50 values (i.e., concentration required to inhibit TNF-activated NFκB activity by 50%).

The test system of another data set is HL-60 cells. The data set can be described thus: NIM-DAPI cell cycle analysis / apoptosis of HL-60 cells. The conditions noted are these: 24 h incubation, various concentrations. How it is done: Figure 3 NIM-DAPI cell cycle analysis of HL-60 cells. HL-60 cells (2 × 10^5 cells/well) were treated with different concentrations of the indicated compounds for 24 h. The media were discarded, and 4',6-diamidino-2-phenylindole solution (NIM-DAPI; Beckman Coulter) was added just before the measurement using a Cell Lab Quanta™ SC (Beckman Coulter) flow cytometer. NIM-DAPI-stained cells were analyzed after excitation. […] Results are representative of two experiments in triplicate.
HL-60 cells (2 × 10^5 cells/well) were treated with samples for 24 h. The media were discarded and nuclear isolation medium (4',6-diamidino-2-phenylindole, NIM-DAPI; Beckman Coulter) was added just before the measurement using a Cell Lab Quanta™ SC (Beckman Coulter) flow cytometer. NIM-DAPI-stained cells were analyzed after excitation.
HL-60 cells at a concentration of 2 × 10^6 cells/mL were incubated with testing phenazines at different concentrations for 24 h. The cells were fixed with 1% paraformaldehyde in PBS and treated with ethanol to permiabilize the cells. Positive and negative control cells were provided already fixed. The DNA labeling reaction was carried out at 22–24 °C overnight. This assay was run on a Cell Lab Quanta™ SC, Beckman Coulter flow cytometer equipped with a 488 nm Argon laser as the light source. Propidium Iodide (total cellular DNA) and Fluorescein (apoptotic cells) were used. Propidium Iodide (PI) fluoresces at about 623 nm and Fluorescein at 520 nm when excited at 488 nm. Following the manufacturer’s instructions, an APO-BRDU™ Kit (Phoenix Flow Systems, Inc.) with a two color TUNEL (Terminal deoxynucleotide transferase dUTP Nick End Labeling) capability for labeling DNA breaks and total cellular DNA to detect apoptotic cells was used.

As for `CC1=C(Cn2c3cccc(=O)c-3nc3ccccc32)CCC(C)(C)C1` [Lavanducyanin 3, lavanducyanin], the “NO % cell survival” value with RAW 264.7 cells turned out to be 58.3 ± 4.6%. Moreover, the “suppression of iNOS mRNA expression” value in the data set with iNOS mRNA expression was found to be 46%. The IC50 in the data set on NFκB was determined as 16.3 µM. The “accumulation of HL-60 cells in subG1 phase (apoptosis)” value (“accumulation of HL-60 cells” below) in the data set with HL-60 cells was “accumulated in the subG1 phase of the cell cycle”.

As to `CC1=C(Cn2c3ccc(Br)c(=O)c-3nc3ccccc32)CCC(C)(C)C1` [Phenazine 1], the “NO % cell survival” value in the data set on RAW 264.7 cells came to 68.9 ± 3.8%. Moreover, the “suppression of iNOS mRNA expression” value in the data set on iNOS mRNA expression was determined as 21%. For the same compound, in the data set on NFκB, the IC50 turned out to be 4.1 µM. The “enhancement of NFκB inhibitory activity by bromination at position-2” value with NFκB (phenazine 1 compared with lavanducyanin) is “approximately 4 fold”. Also, in the data set with HL-60 cells, the “accumulation of HL-60 cells” value is given as “accumulated in the subG1 phase of the cell cycle”.

Turning to `CC(C)=CCn1c2ccc(Br)c(=O)c-2nc2ccccc21` [Phenazine 2], in the data set on RAW 264.7 cells, the “NO % cell survival” value amounted to 56.0 ± 5.1%. In addition, in the data set with iNOS mRNA expression, the “suppression of iNOS mRNA expression” value is 43%. Further, the IC50 in the data set with NFκB came to 24.2 µM. In the data set with HL-60 cells, the “accumulation of HL-60 cells” value is recorded as “accumulated in the subG1 phase of the cell cycle”.

The record behind these values is article PMC3297008, “Novel Marine Phenazines as Potential Cancer Chemopreventive and Anti-Inflammatory Agents” (Marine Drugs, 2012).
